{
  "source": "patent US20260130888A1",
  "about": "“NOVEL THERAPEUTIC MOLECULE” (Pillai Universal LLC, priority 2022, published 2026)",
  "key": {"db/db diabetic mice [1]": {"tested_on": "db/db diabetic mice", "assay": "Effect on body weight, total cholesterol, plasma glucose and triglyceride levels of db/db diabetic mice", "format": "in vivo", "details": "100 and 200 mg/kg b.wt, 2 weeks, vs control mice"}, "insulin receptor (IR-β)": {"tested_on": "insulin receptor (IR-β)", "assay": "Insulin mimicking effect in liver and skeletal muscle of HFD+STZ mice, PCR analysis: IR-β", "format": "in vivo", "details": "dose-dependent", "text": "(§1) Insulin Mimicking Effect of Compound I in Liver and Skeletal Muscle of HFD+STZ Type II Diabetic Mice\n(§2) In the insulin signaling pathway, protein tyrosine phosphatase 1B (PTP1B) considered playing a vital role in the intracellular signal transduction process and metabolism. There is compelling confirmation that PTP1B, is principally responsible for the dephosphorylation of insulin receptor (IR-β), as a result, leading to the block of insulin signaling transduction pathway. […] (FIG. 7, a & b)"}, "p-IRβ, IR": {"tested_on": "p-IRβ, IR", "assay": "Phosphorylated insulin-signaling molecules in muscles and liver of diabetic mice (discussion)", "format": "in vivo", "details": "oral administration, dose-dependent", "text": "(§3) Next, we examine the effect of COMPOUND Ion PTP-1B inhibition and activation of IR-β phosphorylation by PCR and Western blotting studies. In the current study, we used the type 2 diabetic C57BL/6J STZ, HFD+STZ C57BL/6J, db/db mouse model to assess the antihyperglycemic property. […] As shown in FIGS. 6&8, There is a diminish in the tyrosine phosphorylation levels of the IR β- in the skeletal muscle and liver of diabetic mice, involving the PTP1B function in all the diabetic-treated mice. According to Tagami et al. expression of PTP1B activity up regulated in the skeletal muscle and adipose tissue of Otsuka Long-Evans Tokush-in fat rats. Haj et al. established that the hepatic-specific over expression of PTP1B confirmed insulin resistance no longer merely in the liver but also in other tissues in PTP1B knockout mice. For that reason, PTP1B plays a main function in diabetic mice. When PTP1B gets activated, the insulin signaling transduction pathway blocked, and the level of plasma glucose is disturbed, ensuing in the increased plasma glucose level. […] The increased in the tyrosine phosphorylation expression level of the IR β-subunit in the skeletal muscle and liver of Compound I treated diabetic mice point out the enhancement of insulin sensitivity in the entire animal model tested."}, "PI3K, GLUT4": {"tested_on": "PI3K, GLUT4", "assay": "PI3K and GLUT4 gene expression in diabetic mice (discussion)", "format": "in vivo", "text": "as §3, with “tested. […]” for “tested.”"}, "p-IRβ": {"target": "T1, p-IRβ (Mus musculus, UniProt P15208)", "T1 construct": "from tissue; host or cells: skeletal muscle and liver of db/db mice", "T1 sequence (P15208 753-1372 limits assumed)": "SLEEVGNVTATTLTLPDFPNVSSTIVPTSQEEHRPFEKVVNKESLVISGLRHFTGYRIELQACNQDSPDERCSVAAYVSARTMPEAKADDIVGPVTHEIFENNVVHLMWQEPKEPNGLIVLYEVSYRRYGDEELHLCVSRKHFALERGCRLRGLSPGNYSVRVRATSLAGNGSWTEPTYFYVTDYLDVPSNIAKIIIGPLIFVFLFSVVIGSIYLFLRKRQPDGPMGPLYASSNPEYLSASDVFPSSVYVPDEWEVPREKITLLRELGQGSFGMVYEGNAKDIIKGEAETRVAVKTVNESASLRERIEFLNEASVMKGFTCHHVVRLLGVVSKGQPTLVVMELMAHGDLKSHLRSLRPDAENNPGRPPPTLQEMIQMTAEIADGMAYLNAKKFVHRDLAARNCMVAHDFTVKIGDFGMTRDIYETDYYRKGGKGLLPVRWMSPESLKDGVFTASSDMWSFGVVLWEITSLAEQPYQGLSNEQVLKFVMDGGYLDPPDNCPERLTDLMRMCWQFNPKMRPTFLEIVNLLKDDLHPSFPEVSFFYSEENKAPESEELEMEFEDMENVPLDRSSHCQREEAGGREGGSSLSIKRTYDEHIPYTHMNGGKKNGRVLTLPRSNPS", "T1 sequence (P15208 28-748 partner limits assumed)": "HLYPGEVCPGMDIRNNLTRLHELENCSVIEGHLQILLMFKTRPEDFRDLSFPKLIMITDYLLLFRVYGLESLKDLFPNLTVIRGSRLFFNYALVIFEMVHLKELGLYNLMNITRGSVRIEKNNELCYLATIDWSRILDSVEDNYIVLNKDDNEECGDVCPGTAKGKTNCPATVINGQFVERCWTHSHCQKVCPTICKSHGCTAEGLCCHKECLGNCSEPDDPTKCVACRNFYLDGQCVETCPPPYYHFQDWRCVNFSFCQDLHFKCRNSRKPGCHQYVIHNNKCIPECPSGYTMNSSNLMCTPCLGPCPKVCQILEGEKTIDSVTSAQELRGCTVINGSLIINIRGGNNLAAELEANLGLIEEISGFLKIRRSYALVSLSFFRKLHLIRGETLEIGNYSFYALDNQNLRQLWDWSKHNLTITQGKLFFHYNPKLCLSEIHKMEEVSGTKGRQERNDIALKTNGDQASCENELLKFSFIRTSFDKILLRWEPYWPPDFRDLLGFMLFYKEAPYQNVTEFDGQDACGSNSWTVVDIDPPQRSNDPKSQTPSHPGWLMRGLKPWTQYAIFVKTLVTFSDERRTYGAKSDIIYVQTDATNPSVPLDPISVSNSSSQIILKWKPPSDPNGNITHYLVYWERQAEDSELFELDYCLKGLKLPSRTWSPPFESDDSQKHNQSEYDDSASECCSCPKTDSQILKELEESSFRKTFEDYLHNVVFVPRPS", "assay": "Insulin mimicking effect in skeletal muscle and liver of db/db mice, Western blot and PCR: p-IRβ", "format": "in vivo", "details": "vs non-treated control group", "protocol": "(§4) Insulin Mimicking Effect of COMPOUND I in Skeletal Muscle and Liver of db/db Mice\n(§5) To further utilize the insulin mimetic effect of Compound I, the key proteins in PTP1B and PI3K/Akt signaling pathway were evaluated using Western blot and PCR after treatment with Compound I. Western blotting and PCR analysis have been carried out to verify the expression of PTP1B and IR β in skeletal muscle and liver to establish the inhibition effect of Compound I towards PTP1B."}, "db/db diabetic mice [2]": {"tested_on": "db/db diabetic mice", "assay": "Effect on body weight, total cholesterol, plasma glucose and triglyceride levels of db/db diabetic mice", "format": "in vivo", "text": "Effect of Compound I on Body Weight Total Cholesterol, Plasma Glucose, and Triglyceride Levels of db/db Diabetic Mice\nIt is well-known that there is an increase of serum lipid concentration in people with diabetes.\ndb/db mouse is a genetic obesity diabetic animal model produced with the aid of the shortage of leptin receptor. The pathogenesis features of T2DM in db/db mice was similar to those in human type 2 diabetes, including hyperglycemia, obesity, and insulin resistance. Current years, db/db mice have been broadly used in animal experiments to set up the T2DM model. We have investigated whether Compound I include IR activators with insulin-mimetic and insulin-sensitizing activity by means of evaluating their effects on IR signaling. Compound I (100 mg/kg and 200 mg/kg b.wt) treatment for 7 days reduced food consumption and body weight in the db/db mice, an inherited obese animal model (FIG. 5, a-d). […] Based on these findings, further studies on Compound I have been carried out in the subsequent experiments to explore their inhibitory activity against PTP1B."}, "inflammatory parameters": {"tested_on": "inflammatory parameters", "assay": "Inflammatory mediators in HFD+STZ type II diabetic mice", "format": "in vivo", "text": "FIG. 7 depicts the Insulin mimicking effect of compound I in Liver and skeletal muscle of HFD+STZ type II diabetic mice • a. Insulin Mimetic Effect • b. Inflammatory mediators\nas §2"}, "PTP1B [3]": {"tested_on": "PTP1B", "assay": "Insulin mimicking effect in skeletal muscle and liver of db/db mice, Western blot and PCR: PTP1B", "format": "in vivo", "details": "vs control group, p<0.01", "protocol": "as §4, §5"}, "[4]": {"tested_on": "HFD+STZ type II diabetic mice", "assay": "Effect on body weight, plasma glucose, total cholesterol and triglyceride levels of HFD+STZ type II diabetic mice", "format": "in vivo, C57BL/6J mice", "text": "Effect of Compound I on body weight, Total cholesterol, Plasma glucose, and triglyceride levels of HFD+STZ type II diabetic mice:\nEight weeks of dietary manipulation with high-fat diet increased the body weight in all the groups when compared to NPD group.\nType 2 diabetes mellitus and its related complications have arisen as serious health problems in modern societies. The cutting edge technology of drug development is to identify small molecule drugs helpful in controlling both diabetes and obesity. In this study, we assess the impact of a small molecule Compound I having insulin mimicking effect by inhibiting PTP-1B and activating IR-β phosphorylation in insulin-sensitive tissues by in vivo animal model. […] The induction of diabetes mellitus in mice confirmed by elevated levels of fasting plasma glucose. Plasma glucose level measured in normal and experimental mice."}, "[5]": {"tested_on": "IRS-1, IRS-2, PI3K, Glut4 and Akt", "assay": "Expression of diabetic-associated gene transcripts in streptozotocin-induced diabetic mice, semiquantitative RT-PCR", "format": "in vivo", "protocol": "One of the mechanisms which can stimulate or enhance glucose uptake in cells is the elevated translocation of glucose transporter 4 (GLUT 4) from the intracellular site to the plasma membrane. […] The expression of diabetic-related, gluconeogenic and glycolytic genes, in streptozotocin-induced diabetic mice, were treated with Compound I was determined using semiquantitative RT-PCR. As the internal control, GAPDH the band density of each target gene normalized to the band density of GAPDH of the sample."}, "PTP1B [6]": {"tested_on": "PTP1B", "assay": "Insulin mimicking effect in liver and skeletal muscle of HFD+STZ mice, PCR analysis: PTP1B", "format": "in vivo", "details": "dose-dependent, p<0.05", "text": "as §1, §2"}, "[7]": {"tested_on": "IRS-1, IRS-2, PI3K, Glut4, Akt", "assay": "Liver insulin resistance in C57BL/6J-db/db mice: expression of insulin signaling genes", "format": "in vivo", "details": "vs C57BL/6J-db/db control group, p<0.05", "text": "Effect of Compound I on Liver Insulin Resistance in the C57BL/6J-db/Dbmice\nThe expression of insulin signaling genes such as IRS-1, IRS-2, PI3K, Glut4, Akt in the livers of the db/db mice reduced noticeably when compared with that of the normal mice. There was a significant enhance within the activation of all the examined genes in the C57BL/6J-db/db treatment group compared to that of normal control group FIG. 8."}, "[8]": {"details": "100 and 200 mg/kg b.wt, treatment for 7 days"}, "[9]": {"details": "7 days after treatment, vs control mice"}, "[10]": {"details": "Compound I, dose-dependent, high dose better (P<0.05)"}, "[11]": {"details": "14 days after treatment, dose-dependent, vs control mice"}, "[12]": {"details": "C57BL/6J mice fed high-fat diets, 7 days after injection, vs control mice"}, "[13]": {"details": "low and high doses (100 and 200 mg/kg), vs diabetic group"}, "[14]": {"details": "metformin-treated group vs model group"}, "[15]": {"details": "Metformin 250 mg/kg b.wt, vs diabetic group"}},
  "note": "“Also recorded” adds a separate entry of the source.",
  "data": [
    {"smiles": "COc1cc(CO)cc2c1[nH]c1c(/C(C)=C/C(=O)O)cccc12", "note": "[Compound I, (2E)-3-[6-(hydroxymethyl)-8-methoxy-9H carbazol-1-yl]but-2-enoic acid]", "values": [
      {"measurement": "body weights", "setting": "db/db diabetic mice [1]", "result": "significantly decreased"},
      {"measurement": "food intake", "setting": "db/db diabetic mice [1]; p>0.05", "result": "extensively lower"},
      {"measurement": "IR-β levels", "setting": "insulin receptor (IR-β)", "result": "concomitant increase"},
      {"measurement": "expression level of proteins (p-IRβ, IR)", "setting": "p-IRβ, IR", "result": "significantly augmented"},
      {"measurement": "PI3K and GLUT4 expression levels", "setting": "PI3K, GLUT4; in contrast to diabetic mice", "result": "enhanced significantly"},
      {"measurement": "GLUT4 mRNA expression", "setting": "PI3K, GLUT4; vs normal control group", "result": "extremely expressed"},
      {"measurement": "p-IRβ", "setting": "p-IRβ", "result": "significantly increased"},
      {"measurement": "free fatty acids levels", "setting": "db/db diabetic mice [2]; 100 and 200 mg/kg b.wt, 7 days, vs normal control", "result": "reduced"},
      {"measurement": "body weight", "setting": "db/db diabetic mice [2]; [8]", "result": "reduced"},
      {"measurement": "food consumption", "setting": "db/db diabetic mice [2]; [8]", "result": "reduced"},
      {"measurement": "Fasting plasma glucose", "setting": "db/db diabetic mice [2]; [9]", "result": "markedly lower; also recorded: reduced"},
      {"measurement": "insulin", "setting": "db/db diabetic mice [2]; [9]", "result": "markedly lower; also recorded: reduced"},
      {"measurement": "triglyceride levels", "setting": "db/db diabetic mice [2]; [9]", "result": "markedly lower; also recorded: reduced"},
      {"measurement": "total cholesterol concentration", "setting": "db/db diabetic mice [2]; [10]", "result": "lowered"},
      {"measurement": "triglycerides concentration", "setting": "db/db diabetic mice [2]; [10]", "result": "lowered"},
      {"measurement": "expression of inflammatory parameters", "setting": "inflammatory parameters", "result": "significantly reduced"},
      {"measurement": "PTP1B expression", "setting": "PTP1B [3]", "result": "downregulated substantially"},
      {"measurement": "food intake", "setting": "[4]; 100 and 200 mg/kg b.wt, C57BL/6J mice fed high-fat diets for 7 days, vs control mice", "result": "extensively decreased"},
      {"measurement": "Fasting plasma glucose", "setting": "[4]; [11]", "result": "markedly diminished"},
      {"measurement": "insulin levels", "setting": "[4]; [11]", "result": "markedly diminished; also recorded: markedly reduced"},
      {"measurement": "triglyceride levels", "setting": "[4]; [11]", "result": "markedly diminished; also recorded: markedly reduced"},
      {"measurement": "Fasting plasma glucose levels", "setting": "[4]; [12]", "result": "markedly diminished"},
      {"measurement": "insulin levels", "setting": "[4]; [12]", "result": "markedly diminished"},
      {"measurement": "triglyceride levels", "setting": "[4]; [12]", "result": "markedly diminished"},
      {"measurement": "body weights", "setting": "[4]; C57BL/6J mice fed high-fat diets, 7 days, vs normal control mice", "result": "widely dropped"},
      {"measurement": "food intake", "setting": "[4]; Compound I 100 mg/kg and 200 mg/kg b.wt, 14 days, C57BL/6J mice fed high-fat diets, vs control mice, p<0.001", "result": "drastically lower"},
      {"measurement": "body weights", "setting": "[4]; Compound I 100 and 200 mg/kg b.wt, 14 days, vs control mice", "result": "significantly reduce"},
      {"measurement": "decrease in Plasma glucose levels", "setting": "[4]; [13]", "result": "approximately two fold"},
      {"measurement": "decrease in triglycerides levels", "setting": "[4]; [13]", "result": "approximately two fold"},
      {"measurement": "total cholesterol levels reduced", "setting": "[4]; [13]", "result": 2.5, "unit": "fold"},
      {"measurement": "plasma glucose level", "setting": "[4]; oral 100 mg/kg and 200 mg/kg b.wt, STZ-treated diabetic mice", "result": "highly significant effect by reducing"},
      {"measurement": "expression of all the gene transcripts, fold increased expression", "setting": "[5]; Compound I 100 mg/kg, Liver tissue", "result": "~2.5", "unit": "fold"},
      {"measurement": "expression of all the gene transcripts, fold change", "setting": "[5]; Compound I 100 mg/kg, skeletal muscle", "result": "~3.5", "unit": "fold change"},
      {"measurement": "expression of PTP1B", "setting": "PTP1B [6]", "result": "significantly decreased"},
      {"measurement": "expression of all genes involved in insulin signaling pathway", "setting": "[7]", "result": "notably enhanced"}
    ]},
    {"smiles": "CN(C)C(=N)N=C(N)N", "note": "[Metformin, reference compound]", "values": [
      {"measurement": "serum total cholesterol levels", "setting": "db/db diabetic mice [2]; [14]", "result": "lower than in the model group"},
      {"measurement": "serum triglyceride levels", "setting": "db/db diabetic mice [2]; [14]", "result": "lower than in the model group"},
      {"measurement": "glucose", "setting": "[4]; [15]", "result": "markedly reduced"},
      {"measurement": "total cholesterol", "setting": "[4]; [15]", "result": "markedly reduced"},
      {"measurement": "triglycerides", "setting": "[4]; [15]", "result": "markedly reduced"},
      {"measurement": "levels of insulin-signaling gene expression", "setting": "[5]; Metformin-treated groups, skeletal muscle and liver tissue, p<0.05", "result": "increased levels"}
    ]}
  ]
}
